Test results from patent US11576913B2 (priority 2018, dated 2023).
Like-named read-outs stand apart in the source and are kept apart here.

Tests used:
[1] = tested on: subjects suffering from the Insomnia Disorder adult insomnia; assay type: in vivo, human; settings: for mean change in DSST score net of placebo, compared with suvorexant: about 9 hours after administration, vs 10, 20 and 40 mg suvorexant, FIG. 11
Protocol: Literature data for indications of sleep efficacy and attendant residual effects after suvorexant administration, orally administered as BELSOMRA tablets at a single dose of 10 mg, 20 mg, and 40 mg, was available. Literature data for indications of sleep efficacy after zolpidem administration, orally administered as AMBIEN CR tablets, i.e., an extended-release tablet comprising the tartrate salt, in a single dose of 12.5 mg was also available. […] Additionally, the data shown in FIG. 8 through FIG. 11 are for the treatment effect net of placebo.

[2] = not given; remark: listed apart in the source
[3] = tested on: subjects suffering from the Insomnia Disorder adult insomnia; assay: Polysomnography crossover study of sleep parameters (SE, TST, WASO, LPS, Stage N2); assay type: in vivo, human; settings: for Latency to Persistent Sleep (LPS) Least Squares Means (STDE) / Sleep Efficiency (SE) Least Squares Means (STDE) / Time Spent in Sleep Stage N2 Least Squares Means (STDE) / Total Sleep Time (TST) Least Squares Means (STDE) / Wake after Sleep Onset (WASO) Least Squares Means (STDE): average of Night 1 and Night 2, full analysis population; for WASO, decrease in the difference of LSMs: stated as decrease
Protocol: The study randomized up to about 30 subjects to achieve at least about 24 completers (i.e., subjects who completed all 5 Dosing Periods). The subjects included otherwise healthy males and females aged 18 to 64 years, inclusive, with a history of adult insomnia (insomnia disorder as defined by DSM-5 criteria) and who otherwise had no significant medical or psychiatric history.
Compound (1C) was administered orally in an immediate release tablet comprising the pharmaceutically acceptable excipients croscarmellose sodium (FMC Health and Nutrition, Philadelphia, Pa.), hydroxypropylcellulose (Ashland Inc., Covington, Ky.), microcrystalline cellulose (Sigma-Aldrich, St. Louis, Mo.), and mannitol (SPI Pharma, Wilmington, Del.). […] Placebo tablets matching the Compound (1C) tablets were orally administered in the same way. The placebo tablets comprised the four above-described pharmaceutically acceptable excipients but with no Compound (1C).
During a baseline visit (Days −7 to −6), successful subjects arrived at a clinical unit in the afternoon or evening of Day −7. At that time, they began a stay of two consecutive nights during which each subject underwent continuous PSG recording for eight hours on the first night (Night 1) to assess eligibility criteria and to screen out subjects with sleep apnea or periodic limb movements with arousal. Still-successful subjects underwent another eight hours of continuous PSG recording on the second night (Night 2), which determined if a subject met the sleep-eligibility criteria based on the average of data obtained on Nights 1 and 2 of the baseline visit. During the baseline visit, subjects also practiced and took a post-sleep test used in this study, i.e., the digit symbol substitution test (“DSST”), and familiarized themselves with the Karolinska Sleepiness Scale (“KSS”) evaluation form. To assess a subject's perception of the “quality” and “quantity” of sleep, a post-sleep questionnaire was used to ask questions such as “how many minutes did it take you to fall asleep last night after you got into bed and the lights were turned off?”, “how many times did you awaken during the night?”, and “on a scale from 1 to 10, with 1 being poor and 10 being excellent, how would you rate the quality of your sleep last night?”. Subjects who met all eligibility criteria after the baseline visit returned approximately seven days later to enter the treatment period (Dosing Periods 1-5).
A summary of the PSG recording procedure that was used is as follows. Standard placements for EEG electrodes were derived according to the international 10-20 system (see, e.g., Jasper, “The ten-twenty electrode system of the international federation,” Electroencephalography Clin. Neurophys. 10:371-375 (1958)) with the exception of the change of the A1-A2 labels to M1-M2, pursuant to the AASM Manual for Scoring of Sleep (Berry et al., “The AASM Manual for the Scoring of Sleep and Associated Events: Rules, Terminology and Technical Specifications,” Version 2.0.3, American Academy of Sleep Medicine, Darien, Ill., (2014)). This system requires that electrodes be positioned in measured relationships to landmark anatomical points. Standard placements for EOG, submental EMG electrodes, anterior tibialis EMG electrodes, and airflow sensors were consistent with the AASM Manual for Scoring of Sleep.
(2) The 27-day treatment period included five dosing periods (Dosing Periods 1-5) that were at least 5 days apart. Once continued eligibility was confirmed, subjects were randomized as to treatment upon check-in on Day 1. […] The time subjects spent in bed in an undisturbed environment was fixed at 8 hours (i.e., 960 PSG epochs of 30 seconds duration per epoch).
Following the evening-time dosing with study drug, subjects underwent eight hours of continuous PSG recording. […]

[4] = 0.2 mg aqueous suspension (N =24)
[5] = 0.6 mg aqueous suspension (N =24)
[6] = 2.0 mg aqueous suspension (N =23)
[7] = 6.0 mg aqueous suspension (N =25)
[8] = all treatment groups (0.5, 1.0, 3.0, 6.0 mg)

O=C(O)c1nc2ccccc2n([C@H]2C[C@H]3CCC[C@@H](C2)N3C2CC3CCCC(C3)C2)c1=O (stereo partly shown) [Compound (1C)]
Ae, Mean [4]: 0.2232 mg
Fe, Mean (fraction of dose excreted unchanged in urine over 24 hours) [4]: 111.60%
Ae, Mean [5]: 0.6891 mg
Fe, Mean (fraction of dose excreted unchanged in urine over 24 hours) [5]: 114.84%
Ae, Mean [6]: 2.165 mg
Fe, Mean (fraction of dose excreted unchanged in urine over 24 hours) [6]: 108.26%
Ae, Mean [7]: 6.653 mg
Fe, Mean (fraction of dose excreted unchanged in urine over 24 hours) [7]: 110.88%
mean improvement in WASO net of placebo, compared with suvorexant ([1]; 0.5 mg Compound (1C) vs 10 mg or 20 mg suvorexant, Night 1, FIG. 9): nearly comparable to
mean improvement in WASO net of placebo, compared with zolpidem ([1]; 0.5 mg Compound (1C) vs 12.5 mg zolpidem, Night 1, FIG. 9): far greater than
mean change in DSST score net of placebo, compared with suvorexant ([1]; 0.5 mg): small and comparable
mean improvement in SE net of placebo, compared with suvorexant ([1]; 1.0 mg Compound (1C) vs 10 mg suvorexant, Night 1, FIG. 8): greater than
mean improvement in SE net of placebo, compared with zolpidem ([1]; 1.0 mg Compound (1C) vs 12.5 mg zolpidem, Night 1, FIG. 8): greater than
mean improvement in WASO net of placebo, compared with suvorexant ([1]; 1.0 mg Compound (1C) vs 40 mg suvorexant, Night 1, FIG. 9): nearly comparable to
mean change in DSST score net of placebo, compared with suvorexant ([1]; 1.0 mg): small and comparable
mean improvement in LPS net of placebo, compared with suvorexant ([1]; 6.0 mg Compound (1C) vs 10 mg suvorexant, Night 1, FIG. 10): comparable to
mean improvement in SE net of placebo, compared with suvorexant ([1]; 6.0 mg Compound (1C) vs 40 mg suvorexant, Night 1, FIG. 8): comparable to
mean improvement in LPS net of placebo, compared with suvorexant or zolpidem ([1]; up to 6.0 mg Compound (1C) vs 20 mg suvorexant or 12.5 mg zolpidem, Night 1, FIG. 10): not as great as
Mean % Dose Excreted Unchanged ([2]; Cohort 1, 3 mg): 89%
Mean Total Amount Excreted Unchanged ([2]; Cohort 1, 3 mg): 2.66 mg
Mean % Dose Excreted Unchanged ([2]; Cohort 2, 10 mg): 70%
Mean Total Amount Excreted Unchanged ([2]; Cohort 2, 10 mg): 6.95 mg
Mean % Dose Excreted Unchanged ([2]; Cohort 3, 30 mg): 28%
Mean Total Amount Excreted Unchanged ([2]; Cohort 3, 30 mg): 8.37 mg
Latency to Persistent Sleep (LPS) Least Squares Means (STDE) ([3]; 0.5 mg oral): −25.9 (2.78) min
Sleep Efficiency (SE) Least Squares Means (STDE) ([3]; 0.5 mg oral): 12.1 (1.02) %
Time Spent in Sleep Stage N2 Least Squares Means (STDE) ([3]; 0.5 mg oral): 57.1 (5.53) min
Total Sleep Time (TST) Least Squares Means (STDE) ([3]; 0.5 mg oral): 57.9 (4.88) min
Wake after Sleep Onset (WASO) Least Squares Means (STDE) ([3]; 0.5 mg oral): −37.1 (4.54) min
Latency to Persistent Sleep (LPS) Difference of Least Squares Means vs. Placebo ([3]; 0.5 mg vs. Placebo): 2.6 min
Sleep Efficiency (SE) Difference of Least Squares Means vs. Placebo ([3]; 0.5 mg vs. Placebo): 4.1%
Time Spent in Sleep Stage N2 Difference of Least Squares Means vs. Placebo ([3]; 0.5 mg vs. Placebo): 33.6 min
Total Sleep Time (TST) Difference of Least Squares Means vs. Placebo ([3]; 0.5 mg vs. Placebo): 19.8 min
Wake after Sleep Onset (WASO) Difference of Least Squares Means vs. Placebo ([3]; 0.5 mg vs. Placebo): -24.3 min
WASO, decrease in the difference of LSMs ([3]; 0.5 mg vs. placebo): 24.3 min
Latency to Persistent Sleep (LPS) Least Squares Means (STDE) ([3]; 1.0 mg oral): −29.9 (2.78) min
Sleep Efficiency (SE) Least Squares Means (STDE) ([3]; 1.0 mg oral): 14.7 (1.02) %
Time Spent in Sleep Stage N2 Least Squares Means (STDE) ([3]; 1.0 mg oral): 69.2 (5.53) min
Total Sleep Time (TST) Least Squares Means (STDE) ([3]; 1.0 mg oral): 70.3 (4.88) min
Wake after Sleep Onset (WASO) Least Squares Means (STDE) ([3]; 1.0 mg oral): −44.5 (4.54) min
Latency to Persistent Sleep (LPS) Difference of Least Squares Means vs. Placebo ([3]; 1.0 mg vs. Placebo): -1.4 min
Sleep Efficiency (SE) Difference of Least Squares Means vs. Placebo ([3]; 1.0 mg vs. Placebo): 6.7%
Time Spent in Sleep Stage N2 Difference of Least Squares Means vs. Placebo ([3]; 1.0 mg vs. Placebo): 45.7 min
Total Sleep Time (TST) Difference of Least Squares Means vs. Placebo ([3]; 1.0 mg vs. Placebo): 32.3 min
Wake after Sleep Onset (WASO) Difference of Least Squares Means vs. Placebo ([3]; 1.0 mg vs. Placebo): -31.8 min
WASO, decrease in the difference of LSMs ([3]; 1.0 mg vs. placebo): 31.8 min
Latency to Persistent Sleep (LPS) Least Squares Means (STDE) ([3]; 3.0 mg oral): −29.0 (2.82) min
Sleep Efficiency (SE) Least Squares Means (STDE) ([3]; 3.0 mg oral): 17.6 (1.03) %
Time Spent in Sleep Stage N2 Least Squares Means (STDE) ([3]; 3.0 mg oral): 132.1 (5.6) min
Total Sleep Time (TST) Least Squares Means (STDE) ([3]; 3.0 mg oral): 84.5 (4.96) min
Wake after Sleep Onset (WASO) Least Squares Means (STDE) ([3]; 3.0 mg oral): −59.1 (4.60) min
Latency to Persistent Sleep (LPS) Difference of Least Squares Means vs. Placebo ([3]; 3.0 mg vs. Placebo): -0.5 min
Sleep Efficiency (SE) Difference of Least Squares Means vs. Placebo ([3]; 3.0 mg vs. Placebo): 9.7%
Time Spent in Sleep Stage N2 Difference of Least Squares Means vs. Placebo ([3]; 3.0 mg vs. Placebo): 108.5 min
Total Sleep Time (TST) Difference of Least Squares Means vs. Placebo ([3]; 3.0 mg vs. Placebo): 46.4 min
Wake after Sleep Onset (WASO) Difference of Least Squares Means vs. Placebo ([3]; 3.0 mg vs. Placebo): -46.4 min
WASO, decrease in the difference of LSMs ([3]; 3.0 mg vs. placebo): 46.4 min
Latency to Persistent Sleep (LPS) Least Squares Means (STDE) ([3]; 6.0 mg oral): −31.7 (2.78) min
Sleep Efficiency (SE) Least Squares Means (STDE) ([3]; 6.0 mg oral): 19.0 (1.02) %
Time Spent in Sleep Stage N2 Least Squares Means (STDE) ([3]; 6.0 mg oral): 146.3 (5.5) min
Total Sleep Time (TST) Least Squares Means (STDE) ([3]; 6.0 mg oral): 91.0 (4.88) min
Wake after Sleep Onset (WASO) Least Squares Means (STDE) ([3]; 6.0 mg oral): −63.5 (4.54) min
Latency to Persistent Sleep (LPS) Difference of Least Squares Means vs. Placebo ([3]; 6.0 mg vs. Placebo): -3.2 min
Sleep Efficiency (SE) Difference of Least Squares Means vs. Placebo ([3]; 6.0 mg vs. Placebo): 11.0%
Time Spent in Sleep Stage N2 Difference of Least Squares Means vs. Placebo ([3]; 6.0 mg vs. Placebo): 122.8 min
Total Sleep Time (TST) Difference of Least Squares Means vs. Placebo ([3]; 6.0 mg vs. Placebo): 52.9 min
Wake after Sleep Onset (WASO) Difference of Least Squares Means vs. Placebo ([3]; 6.0 mg vs. Placebo): -50.8 min
WASO, decrease in the difference of LSMs ([3]; 6.0 mg vs. placebo): 50.8 min
Sleep Efficiency vs placebo [3, 8]: significantly increased
Total Sleep Time vs placebo [3, 8]: significantly increased
Wake after Sleep Onset vs placebo [3, 8]: significantly decreased
amount of time spent in sleep Stage N2 vs placebo [3, 8]: significantly increased
Latency to Persistent Sleep vs placebo ([3]; any of the treatment groups (0.5, 1.0, 3.0, 6.0 mg)): not significantly different
